Laboratory results taken from US6348477B1, “Anti-herpesvirus compounds and methods for identifying, making and using same” (Boehringer Ingelheim(Canada) Ltd., priority 1995, dated 2002).

How the values were obtained:
HCMV (strain AD169) [1] = assay: Inhibition of HCMV replication, ELISA assay (Hs-68 cells, p28); assay type: cell-based, human cytomegalovirus; conditions: Human betaherpesvirus 5, AD169, Hs68; Group 1 Table 1; read-out: ELISA CMV EC50
Protocol: (§1) C) Inhibition of Human Cytomegalovirus (HCMV) replication
(§2) The effect of compounds on the replication of HCMV has been measured by using an ELISA-based assay (ELISA) and a plaque reduction assay (PRA).
(§3) Hs-68 cells (ATCC # CRL 1635) were seeded in 96 well microtiter plates at 10,000 cells/well in 100 μL of DMEM medium (Gibco Canada Inc.) supplemented with 10% fetal bovine serum (FBS, Gibco Canada Inc.). The plates were incubated for 3 days at 37° to allow the cells to reach 80-90% confluency prior to the assay.
The medium was removed from wells by aspiration. The cells then were infected at a multiplicity of infection (MOI) of 0.01 PFU/cell with 50 μL of HCMV (strain AD169, ATCC VR-538) in DMEM medium supplemented with 5% heat inactivated FBS (assay medium). The virus was allowed to adsorb to cells for 2 h at 37°. Following viral adsorption, the medium was removed from the wells by aspiration. The cells were washed twice with 200 μL of assay medium to remove unabsorbed virus. The cells were then incubated with or without 100 μL of appropriate concentrations of test reagent in assay medium. After 8 days of incubation at 37°, the extent of viral replication was determined by an ELISA assay which detects the late structural protein p28 of HCMV.
Eight days after infection, the medium was aspirated from the wells. Non-specific binding sites were blocked by adding 200 μL of phosphate buffered saline containing 1% (w/v) bovine serum albumin (blocking buffer) to each well and incubating the plates for 30 min at room temperature. After removal of the blocking buffer by aspiration, the cells were fixed with 100 μL of cold ethanol-acetone solution (95:5) per well. The plates were placed at −20° for 30 min. The plates were washed 4 times with phosphate buffered saline containing 0.05% (v/v) polyoxyethylene sorbitan monolaurate (Tween 20®). Thereafter, 100 μL of mAb UL99 (Advanced Biotechnologies Inc., #13-130-100) recognizing HCMV protein p28 was added to each wells and plates were incubated for 2 h at room temperature. The plates were washed four times with 200 μL of the above-noted phosphate buffered saline/Tween-20® solution. The cells were then incubated with 100 μL of sheep anti-mouse IgGγ horseradish peroxidase conjugated for 2 h at room temperature. The plates were then washed four times with 200 μL of above-noted phosphate buffered saline/Tween-20®solution. Thereafter, 100 μL of ortho phenylenediamine dihydrochloride (OPD, Gibco Canada Inc.) solution was added to each well and the plates were agitated on a microplate shaker for 30 min in the dark. Color development was monitored at 450 nm using a microplate spectrophotometer.
The SAS program was used to calculate the % inhibition of viral replication and to generate EC50 values.
The EC50 values obtained according to this assay method for certain thiazolylphenyl derivatives of this invention are listed in the following tables under the heading ELISA CMV.

HSV-1 helicase-primase = target: T1, HSV-1 helicase-primase (Human herpesvirus 1, UniProt P10189+P10236); assay: HSV-1 DNA-dependent ATPase assay (inhibition of HSV-1 helicase-primase); assay type: biochemical; conditions: Group 1 Table 1
T1 construct: made in house; host or cells: Sf21 insect cells triply infected with recombinant baculoviruses
Text: A) HSV-1 DNA-Dependent ATP Assay (an in Vitro Assay Based on the Inhibition of HSV-1 Helicase-primase).
a) Preparation of enzyme: HSV-1 helicase-primase holoenzyme was produced in triply infected Sf21 cells using recombinant baculoviruses expressing the UL5, UL8 and UL52 helicase-primase subunits, as described by S. Dracheva et al., J. Biol. Chem. 1995, 270, 14148. The crude enzyme was purified by ammonium sulfate precipitation, Source 15Q® chromatography and Sephacryl® S-300 HR gel filtration (both purification systems can be obtained from Pharmacia Biotech Inc., Montreal, Quebec, Canada), see S. Dracheva et al., supra.
b) Assay: The DNA-dependent ATPase assay, described by J. J. Crute et al., Nucleic Acids Res. 1988, 16, 6585, was modified and used to evaluate the capability of the compounds of Group 1-formula 1 to inhibit HSV-1 helicase-primase activity. The reaction mixtures (80 μL each) contained 40 mM 4-(2-hydroxyethyl)-1-piperazineethanesulfonic acid (HEPES, pH 7.5), 10% (v/v) glycerol, 5.5 mM MgCl2, 1 mM DL-dithiothreitol (DTT), 50 μg/mL acetylated bovine serum albumin, 3.3% (v/v) DMSO, 4 mM ATP, 25 μM single-stranded M13 DNA hybridized to double-tailed 68-mer oligonucleotide and 3 μg/mL HSV-1 helicase-primase. After incubation for 20 min at 34°, formation of inorganic phosphate from hydrolysis of ATP was monitored spectrophotometrically at 650 nm using acidic ammonium molybdate/malachite green reagent, P. A. Lanzetta et al., Anal. Biochem. 1979, 100, 95. DNA-dependent ATPase activity was calculated from the net absorbance change in the presence and absence of inhibition.

HCMV (strain AD169) [2] = assay: Inhibition of HCMV replication, plaque reduction assay (PRA, Hs-68 cells); assay type: cell-based, human cytomegalovirus; conditions: Group 1 Table 1, read-out: PRA CMV EC50
Protocol: as §1, §2
as §3, with “( ATCC” for “(ATCC”, “12-well” for “96 well microtiter”, “83,000” for “10,000”, “1 mL” for “100 μL”
The medium was removed from the cells by aspiration. The cells were then infected with approximately 50 PFU of HCMV (strain AD169, ATCC VR-538) in DMEM medium supplemented with 5% inactivated FBS (assay medium). The virus was allowed to adsorb to cells for 2 h at 37°. Following viral adsorption, the medium was removed from the wells by aspiration. The cells were then incubated with or without 1 mL of appropriate concentrations of test reagent in assay medium. After 4 days of incubation at 37°, the medium was exchanged with fresh medium containing test compound and 4 days later the cells were fixed with 1% aqueous formaldehyde and stained with a 2% crystal violet solution in 20% ethanol in water. Microscopic plaques were counted using a stereomicroscope. Drug effects were calculated as a percent reduction in the number of plaques in the presence of each drug concentration compared to the number observed in the absence of drug. Ganciclovir was used as a positive control in all experiments.
The EC50 values obtained according to this assay for certain thiazolyl derivatives of this invention are listed in the following tables under the heading PRA CMV.

[3] = Human betaherpesvirus 5, AD169, Hs68

T1 sequence (P10189 whole entry): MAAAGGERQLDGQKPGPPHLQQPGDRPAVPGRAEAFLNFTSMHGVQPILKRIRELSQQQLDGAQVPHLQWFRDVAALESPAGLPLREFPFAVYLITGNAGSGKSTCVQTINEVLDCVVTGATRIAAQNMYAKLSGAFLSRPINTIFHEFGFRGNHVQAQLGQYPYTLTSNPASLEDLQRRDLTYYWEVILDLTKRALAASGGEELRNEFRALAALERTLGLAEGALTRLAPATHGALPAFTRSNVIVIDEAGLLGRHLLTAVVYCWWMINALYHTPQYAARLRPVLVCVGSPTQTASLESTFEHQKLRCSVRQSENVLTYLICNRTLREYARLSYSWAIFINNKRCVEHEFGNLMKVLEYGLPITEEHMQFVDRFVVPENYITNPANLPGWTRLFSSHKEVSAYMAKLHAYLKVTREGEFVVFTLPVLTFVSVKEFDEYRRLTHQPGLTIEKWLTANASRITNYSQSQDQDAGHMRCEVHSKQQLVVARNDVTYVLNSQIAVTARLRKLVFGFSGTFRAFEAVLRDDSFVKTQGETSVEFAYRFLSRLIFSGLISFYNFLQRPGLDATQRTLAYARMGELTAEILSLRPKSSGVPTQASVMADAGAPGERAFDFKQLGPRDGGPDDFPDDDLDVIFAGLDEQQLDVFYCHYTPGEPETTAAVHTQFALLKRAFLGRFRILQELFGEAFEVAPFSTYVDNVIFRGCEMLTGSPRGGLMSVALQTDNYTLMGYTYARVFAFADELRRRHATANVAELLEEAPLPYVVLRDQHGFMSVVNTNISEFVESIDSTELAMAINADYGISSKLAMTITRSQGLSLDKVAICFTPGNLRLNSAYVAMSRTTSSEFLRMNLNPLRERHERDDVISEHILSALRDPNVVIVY
T1 sequence (P10192 whole entry, further chain): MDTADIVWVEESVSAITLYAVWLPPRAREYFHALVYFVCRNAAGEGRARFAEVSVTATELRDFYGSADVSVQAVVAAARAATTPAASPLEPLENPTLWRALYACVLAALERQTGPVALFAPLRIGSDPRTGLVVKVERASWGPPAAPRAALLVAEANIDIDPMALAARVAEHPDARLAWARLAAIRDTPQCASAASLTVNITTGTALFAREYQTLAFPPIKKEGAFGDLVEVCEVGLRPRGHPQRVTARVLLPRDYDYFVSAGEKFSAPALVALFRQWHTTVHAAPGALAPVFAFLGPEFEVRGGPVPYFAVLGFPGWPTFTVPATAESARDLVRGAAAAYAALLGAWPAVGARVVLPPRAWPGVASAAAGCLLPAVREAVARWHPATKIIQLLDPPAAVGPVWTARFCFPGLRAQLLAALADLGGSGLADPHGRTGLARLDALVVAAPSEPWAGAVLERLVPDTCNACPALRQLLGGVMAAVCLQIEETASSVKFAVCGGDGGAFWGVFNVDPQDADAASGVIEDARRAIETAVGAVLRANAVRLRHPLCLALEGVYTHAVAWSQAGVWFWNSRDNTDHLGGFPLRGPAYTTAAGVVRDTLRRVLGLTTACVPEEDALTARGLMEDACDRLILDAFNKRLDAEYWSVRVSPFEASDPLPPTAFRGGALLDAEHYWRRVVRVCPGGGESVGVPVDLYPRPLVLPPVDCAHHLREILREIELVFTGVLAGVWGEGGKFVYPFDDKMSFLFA
T1 sequence (P10236 whole entry): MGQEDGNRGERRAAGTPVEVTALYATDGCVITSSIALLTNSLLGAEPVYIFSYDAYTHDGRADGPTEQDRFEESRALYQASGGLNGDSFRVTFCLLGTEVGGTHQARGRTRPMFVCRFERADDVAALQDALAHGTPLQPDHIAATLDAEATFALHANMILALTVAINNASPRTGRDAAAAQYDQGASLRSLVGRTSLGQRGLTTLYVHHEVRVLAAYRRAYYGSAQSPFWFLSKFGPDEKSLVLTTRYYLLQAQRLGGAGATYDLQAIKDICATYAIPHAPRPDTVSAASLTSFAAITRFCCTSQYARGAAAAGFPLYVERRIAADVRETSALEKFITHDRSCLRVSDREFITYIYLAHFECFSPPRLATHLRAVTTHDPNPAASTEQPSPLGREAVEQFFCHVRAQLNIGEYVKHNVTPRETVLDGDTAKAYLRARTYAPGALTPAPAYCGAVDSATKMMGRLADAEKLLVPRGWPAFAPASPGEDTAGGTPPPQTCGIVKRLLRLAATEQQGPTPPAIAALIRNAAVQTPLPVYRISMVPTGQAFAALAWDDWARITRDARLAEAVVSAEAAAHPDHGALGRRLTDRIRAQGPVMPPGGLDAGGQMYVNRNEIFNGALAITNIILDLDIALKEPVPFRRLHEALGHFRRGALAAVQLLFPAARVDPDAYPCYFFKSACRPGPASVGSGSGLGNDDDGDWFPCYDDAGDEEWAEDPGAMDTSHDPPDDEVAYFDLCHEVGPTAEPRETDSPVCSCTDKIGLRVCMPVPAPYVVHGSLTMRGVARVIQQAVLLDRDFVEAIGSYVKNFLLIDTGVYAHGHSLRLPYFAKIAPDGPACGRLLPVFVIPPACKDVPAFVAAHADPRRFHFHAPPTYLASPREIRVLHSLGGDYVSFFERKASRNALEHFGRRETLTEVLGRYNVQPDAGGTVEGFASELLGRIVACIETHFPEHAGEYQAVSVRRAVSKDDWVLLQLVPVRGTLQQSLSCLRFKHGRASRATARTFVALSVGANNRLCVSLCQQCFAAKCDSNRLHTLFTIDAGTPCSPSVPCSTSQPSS

Compound | EC50 (HCMV (strain AD169) [1]) | IC50 (HSV-1 helicase-primase) | EC50 (HCMV (strain AD169) [2]; [3]) | further results
Nc1nc(-c2ccc(NC(=O)CNCc3ccccc3)cc2)cs1 [Example 2, N-{4-(2-Amino-4-thiazolyl)phenyl}-2-{(phenylmethyl)-amino}acetamide] |  |  |  | melting point: 162 to 163 °C
NC(=O)N(Cc1ccc(F)cc1)c1ccc(-c2csc(N)n2)cc1 [Example 2, N-{4-(2-Amino-4-thiazolyl)phenyl}-N-{(4-fluorophenyl)methyl}urea] |  |  |  | melting point: 227 to 230 °C
Nc1nc(-c2ccc(NC(=O)CNCC3CCCCC3)cc2)cs1 [Example 3, N-{4-(2-Amino-4-thiazolyl)phenyl}-2-{(cyclohexyl-methyl)amino}acetamide] |  |  |  | melting point: 164 to 166 °C
Nc1nc(-c2ccc(NC(=O)CN(Cc3ccccc3)C(=O)C3CCCCC3)cc2)cs1 [Example 4, N-{2-{{4-(2-Amino-4-thiazolyl)phenyl)amino}-2-oxoethyl}-N-(phenylmethyl)cyclohexanecarboxamide] |  |  |  | melting point: 214.5 to 215.5 °C
CCCCN(CCCC)C(=O)C(=O)Nc1ccc(-c2csc(N)n2)cc1 [Example 4, N-{4-(2-Amino-4-thiazolyl)phenyl}-N′,N′-dibutylethanediamide] |  |  |  | melting point: 178 to 179 °C
Nc1nc(-c2ccc(NC(=O)CN(Cc3ccc(Cl)cc3)C(=O)c3ccncc3)cc2)cs1 [Example 55] | 11.9 µM | 0.57 µM |  | 
Nc1nc(-c2ccc(NC(=O)CN(CC3CCCCC3)C(=O)c3ccncc3)cc2)cs1 [Example 57] | 2.6 µM | 3.9 µM | 15.8 µM | 
CC(C)(C)OC(=O)N1CCC(C(=O)N(CC(=O)Nc2ccc(-c3csc(N)n3)cc2)CC2CCCCC2)CC1 [Example 61] |  | 4.4 µM |  | 
Nc1nc(-c2ccc(NC(=O)CN(CC3CCCCC3)C(=O)C3CCNCC3)cc2)cs1 [Example 62] |  |  |  | inhibition of HSV-1 helicase-primase (HSV-1 helicase-primase; at 50 μM): 29% inhi- bition at 50 μM
Nc1nc(-c2ccc(NC(=O)CN(CCc3ccccc3)C(=O)C3CCCCC3)cc2)cs1 [Example 68] | > 5 µM | 0.18 µM |  | 
Nc1nc(-c2ccc(NC(=O)CN(Cc3ccc(Cl)cc3)C(=O)CC3CCCCC3)cc2)cs1 [Example 69] |  | 0.43 µM | 8 µM | 
Nc1nc(-c2ccc(NC(=O)CN(CC3CCCCC3)C(=O)CC3CCCC3)cc2)cs1 [Example 75] | 48 µM | 0.21 µM |  | 
[N-]=[N+]=Nc1ccc(C(=O)N(CC(=O)Nc2ccc(-c3csc(N)n3)cc2)Cc2ccncc2)cc1 [Example 78] |  | 1 µM |  | 
CC(C)CN(CC(=O)Nc1ccc(-c2csc(N)n2)cc1)C(=O)C1CCCCC1 [Example 81] | 14 µM | 0.48 µM |  | 
Nc1nc(-c2ccc(NC(=O)CN(Cc3ccc(F)cc3)C(=O)C3CCCCC3)cc2)cs1 [Example 83] | 8.1 µM | 0.042 µM |  | 
CC(C)COC(=O)N(CC(=O)Nc1ccc(-c2csc(N)n2)cc1)Cc1ccccc1 [Example 86] | 3.8 µM | 0.17 µM | 24 µM | 
CC(C)(C)NC(=O)N(CC(=O)Nc1ccc(-c2csc(N)n2)cc1)Cc1ccccc1 [Example 92] | 0.9 µM | 0.076 µM | 65 µM | 

Compound | EC50 (HCMV (strain AD169) [1]) | IC50 (HSV-1 helicase-primase) | EC50 (HCMV (strain AD169) [2]; [3]) | further results
CN(C(=O)N(CC(=O)Nc1ccc(-c2csc(N)n2)cc1)Cc1ccccc1)C(C)(C)C [Example 94] | > 8 µM | 0.026 µM | > 24 µM | 
Nc1nc(-c2ccc(NC(=O)CN(Cc3ccccc3)C(=O)N3CCOCC3)cc2)cs1 [Example 95] | 57 µM | 0.14 µM | 90 µM | 
Nc1nc(-c2ccc(NC(=O)CN(Cc3ccccc3)S(=O)(=O)N3CCOCC3)cc2)cs1 [Example 96] | 0.35 µM | 0.29 µM | 12 µM | 
CC(C)(C)OC(=O)N(CC(=O)Nc1ccc(-c2csc(N)n2)cc1)CC1CCCCC1 [Example 100] | 14 µM | 0.76 µM |  | 
Cc1ccccc1CN(CC(=O)Nc1ccc(-c2csc(N)n2)cc1)C(=O)c1ccncc1 [Example 102] | 11 µM | 0.19 µM | 18 µM | 
C[C@@H](c1ccccc1)N(CC(=O)Nc1ccc(-c2csc(N)n2)cc1)C(=O)NC(C)(C)C [Example 105] | 11 µM | 0.7 µM |  | 
C[C@@H](C1CCCCC1)N(CC(=O)Nc1ccc(-c2csc(N)n2)cc1)C(=O)OC(C)(C)C [Example 108] |  | 0.46 µM |  | 
CC(C)CN(CC(=O)Nc1ccc(-c2csc(N)n2)cc1)C(=O)OC(C)(C)C [Example 112] |  | 1.8 µM |  | 
Nc1nc(-c2ccc(NC(=O)CN(Cc3ccccc3)C(=O)Cc3ccncc3)cc2)cs1 [Example 114] |  | 0.8 µM | 23 µM | 
Nc1nc(-c2ccc(NC(=O)CN(Cc3ccccc3F)C(=O)c3ccncc3)cc2)cs1 [Example 118] |  | 0.047 µM | 60 µM | 
Cc1cccc(C)c1OCC(=O)N(CC(=O)Nc1ccc(-c2csc(N)n2)cc1)Cc1ccccc1 [Example 121] |  | 0.49 µM |  | EC50 (HCMV (strain AD169) [2]): > 31 µM
Cc1cc(C)nc(SCC(=O)N(CC(=O)Nc2ccc(-c3csc(N)n3)cc2)Cc2ccccc2)n1 [Example 122] |  |  |  | EC50 (HCMV (strain AD169) [2]): 3.3 µM
CC(c1ccccc1)N(CC(=O)Nc1ccc(-c2csc(N)n2)cc1)C(=O)c1cccnc1 (stereo not shown) [Example 134] |  | 0.26 µM |  | EC50 (HCMV (strain AD169) [2]): 18 µM
C[C@@H](c1ccccc1)N(CC(=O)Nc1ccc(-c2csc(N)n2)cc1)C(=O)Cc1ccccn1 [Example 135] |  | 0.78 µM | 38 µM | 
CC(c1ccccc1)N(CC(=O)Nc1ccc(-c2csc(N)n2)cc1)C(=O)Cc1ccccn1 (stereo not shown) [Example 136] |  | 4.2 µM |  | EC50 (HCMV (strain AD169) [2]): 31 µM
CC(c1ccccc1)N(CC(=O)Nc1ccc(-c2csc(N)n2)cc1)C(=O)c1ccncc1 (stereo not shown) [Example 137] |  | 0.98 µM |  | EC50 (HCMV (strain AD169) [2]): 49 µM
CN1CCC(C(=O)N(CC(=O)Nc2ccc(-c3csc(N)n3)cc2)CC2CCCCC2)CC1 [Example 138] | 31.6 µM | > 50 µM |  | 
